The term IC50 denotes the midpoint of a concentration-inhibition curve.

In test [1] the test system is Ba/F3 cells HER2 M774delinsWLV. The test can be described thus: Ba/F3 cell viability. It is filed as cell-based. The note with it: read-out: IC50 (average ± SD).
Test [2] has as its system Ba/F3 cells HER2 V777L. The test can be described thus: Ba/F3 cell viability. Type of test: cell-based. Conditions: read-out: IC50 (average ± SD).
The test system of test [3] is Ba/F3 cells HER2 G776delinsVC. The test can be described thus: Ba/F3 cell viability. It is filed as cell-based. Conditions: read-out: IC50 (average ± SD).
The subject of test [4] is WT EGFR vs all HER2 mutants Ba/F3 cells. The test can be described thus: Selectivity index from Ba/F3 IC50 ratios. Type of test: cell-based. Conditions: average over HER2 mutants.
In test [5] the test system is Ba/F3 cells WT EGFR (+ rhEGF). Put plainly: Ba/F3 cell viability. It is filed as cell-based. Conditions: read-out: IC50 (average ± SD).
The subject of test [6] is Ba/F3 cells HER2 S310F. The test can be described thus: Ba/F3 cell viability. Type of test: cell-based. The note with it: read-out: IC50 (average ± SD).
Test [7] concerns Ba/F3 cells HER2 P780_Y781insGSP. Put plainly: Ba/F3 cell viability. The note with it: read-out: IC50 (average ± SD). It is filed as cell-based.
The subject of test [8] is Ba/F3 cells HER2 amplification. The test can be described thus: Ba/F3 cell viability. Type of test: cell-based. Conditions: read-out: IC50 (average ± SD).
The subject of test [9] is Ba/F3 cells HER2 L755S. The test can be described thus: Ba/F3 cell viability. It is filed as cell-based. Conditions: read-out: IC50 (average ± SD).
The test system of test [10] is Ba/F3 cells HER2 A775_G776insYVMA. Put plainly: Ba/F3 cell viability. It is filed as cell-based. The note with it: read-out: IC50 (average ± SD).
The test system of test [11] is Ba/F3 cells HER2 V862I. The test can be described thus: Ba/F3 cell viability. The note with it: read-out: IC50 (average ± SD). It is filed as cell-based.
Test [12] has as its system BT-474. The test can be described thus: Cancer cell viability. Conditions: Homo sapiens, BT-474, 72 h, read-out: IC50 (average ± SD). Type of test: cell-based, human.
In test [13] the test system is SKBR3. Put plainly: Cancer cell viability. The note with it: Homo sapiens, SK-BR-3, 72 h, read-out: IC50 (average ± SD). It is filed as cell-based, human.
Test [14] deals with DFCI 429. The test can be described thus: Patient-derived cancer cell viability. It is filed as cell-based, human. Conditions: Homo sapiens, 72 h, read-out: IC50 (average ± SD).
Test [15] concerns Calu-3 tumors. The test can be described thus: Calu-3 xenograft efficacy. Type of test: in vivo. Conditions: Calu-3 in NCr nude mice, oral, 39 days; JBJ-08-178-01 at 50 mg/kg BID.
The subject of test [16] is H1781. Put plainly: Cancer cell viability. The note with it: Homo sapiens, NCI-H1781, 72 h, read-out: IC50 (average ± SD). Type of test: cell-based, human.
In test [17] the test system is H1819. The test can be described thus: Cancer cell viability. It is filed as cell-based. Conditions: Homo sapiens, NCI-H1819, 72 h, read-out: IC50 (average ± SD).
For test [18], the system named is Ba/F3 cells HER2 755_757LREdelinsRP. The test can be described thus: Ba/F3 cell viability. It is filed as cell-based. Conditions: Mus musculus, BaF3, 72 h, read-out: IC50 (average ± SD).
Test [19] relates to Calu-3. The test can be described thus: Cancer cell viability. Conditions: Homo sapiens, Calu-3, 72 h, read-out: IC50 (average ± SD). It is filed as cell-based.
Test [20] concerns MCF7. Put plainly: Cancer cell viability. Type of test: cell-based, human. The note with it: Homo sapiens, MCF7, 72 h, read-out: IC50 (average ± SD).
In test [21] the test system is NCI-N87. Put plainly: Cancer cell viability. Type of test: cell-based, human. Conditions: Homo sapiens, NCI-N87, 72 h, read-out: IC50 (average ± SD).
Test [22] deals with A-431. The test can be described thus: Cancer cell viability. Conditions: read-out: IC50 (average ± SD); A-431, epidermoid, EGFR amp, 72 h. It is filed as cell-based, human.
Test [23] concerns HER2 mutant lung cancer. Conditions: cited from earlier work.

Read-outs that look alike come from different tables or passages of the source.

With `C=CC(=O)N1CCC[C@@H](n2nc(C(=O)Nc3ccc(CC(=O)N(C)C)c(C)c3C)c3c(N)ncnc32)C1` [TAS0728], the IC50 in [1] (Ba/F3 HER2 M774delinsWLV, 3 days) turned out to be 894 ± 509 nM; in test [2] (Ba/F3 HER2 V777L, 3 days) it was 19.2 ± 12.2 nM; in [3] (Ba/F3 HER2 G776delinsVC, 3 days), 626 ± 130 nM; in test [5] (Ba/F3 WT EGFR (+ rhEGF 10 ng/mL), 3 days) it was 399 ± 77.3 nM; in test [6] (Ba/F3 HER2 S310F, 3 days), 238 ± 95 nM; in test [7] (Ba/F3 HER2 P780_Y781insGSP, 3 days), 80.1 ± 27 nM. Moreover, the IC50 in test [8] (Ba/F3 HER2 amplification, 3 days) stood at 288 ± 20.6 nM; in test [9] (Ba/F3 HER2 L755S, 3 days) it was 3760 ± 3080 nM; in [10] (Ba/F3 HER2 A775_G776insYVMA, 3 days), 256 ± 175 nM; in [11] (Ba/F3 HER2 V862I, 3 days) it was 1320 ± 506 nM. Also, the “Selectivity index (IC50 ratio = WT EGFR ÷ all HER2 mutants)” value in test [4] was found to be 0.48.

As for `Cc1cc(Nc2ncnc3ccc(NC4=NC(C)(C)CO4)cc23)ccc1Oc1ccn2ncnc2c1` [tucatinib], the IC50 is 1730 nM in [12]; 683 ± 288 nM in [1] (Mus musculus, BaF3, 72 h); 7.2 ± 0.57 nM in [2] (Mus musculus, BaF3, 72 h); 840 ± 918 nM in test [13]; 2790 nM in [14]; 97.8 ± 43.3 nM in test [3] (Mus musculus, BaF3, 72 h). The IC50 stood at 3910 nM in [16]; 521 ± 551 nM in test [17]; 5180 ± 2520 nM in test [5] (Mus musculus, BaF3, 72 h); 371 ± 168 nM in [6] (Mus musculus, BaF3, 72 h); 102 ± 23.6 nM in test [18]; 1900 nM in test [19]. Besides, the IC50 in test [20] stood at 11300 nM; in test [7] (Mus musculus, BaF3, 72 h) it was 131 ± 37.3 nM; in test [8] (Mus musculus, BaF3, 72 h), 126 ± 81.8 nM; in test [9] (Mus musculus, BaF3, 72 h), 2090 ± 981 nM; in [10] (Mus musculus, BaF3, 72 h), 269 ± 88.1 nM; in [21] it was 16.2 ± 2.4 nM. For the same molecule, the IC50 in [11] (Mus musculus, BaF3, 72 h) amounted to 1940 ± 1110 nM. Further, the tumor growth result in test [15] is listed as “less efficacious than other covalent inhibitors”. The “Selectivity index (IC50 ratio = WT EGFR ÷ all HER2 mutants)” value in test [4] amounted to 8.91.

Turning to `C=CC(=O)N1CCC(Oc2cc3c(Nc4ccc(Cl)c(Cl)c4F)ncnc3cc2OC)CC1` [poziotinib], the half-inhibitory concentration (IC50) in test [12] was 368 ± 414 nM; in test [1] (Mus musculus, BaF3, 72 h), 3.45 ± 2.45 nM; in [2] (Mus musculus, BaF3, 72 h), 2.43 ± 0.77 nM; in test [13] it was 929 nM; in test [14] it was 744 ± 747 nM; in [3] (Mus musculus, BaF3, 72 h), 1.17 ± 0.86 nM. Moreover, the IC50 in [16] was 197 ± 147 nM; in [17], 75.5 ± 28.8 nM; in test [5] (Mus musculus, BaF3, 72 h) it was 1.41 ± 0.56 nM; in test [6] (Mus musculus, BaF3, 72 h) it was 73.5 ± 41.1 nM; in test [18] it was 0.95 ± 0.94 nM; in [19], 4.7 ± 2 nM. In addition, the IC50 in test [20] is 5940 nM; in test [7] (Mus musculus, BaF3, 72 h), 1.28 ± 1.12 nM; in test [8] (Mus musculus, BaF3, 72 h) it was 1.08 ± 1.04 nM; in [9] (Mus musculus, BaF3, 72 h), 523 ± 440 nM; in test [22], 59.9 ± 46.1 nM; in [10] (Mus musculus, BaF3, 72 h) it was 1.05 ± 0.67 nM. Moreover, the IC50 in test [21] was 0.7 nM; in [11] (Mus musculus, BaF3, 72 h), 29.3 ± 43 nM.

With `CS(=O)(=O)CCNCc1ccc(-c2ccc3ncnc(Nc4ccc(OCc5cccc(F)c5)c(Cl)c4)c3c2)o1` [lapatinib], the IC50 in [12] turned out to be 3780 nM; in [1] (Mus musculus, BaF3, 72 h), 621 ± 333 nM; in [2] (Mus musculus, BaF3, 72 h), 13.1 ± 5.79 nM; in test [13] it was 5390 nM; in [3] (Mus musculus, BaF3, 72 h), 65.3 ± 49.7 nM; in test [16], 2420 nM. The IC50 amounted to 341 ± 171 nM in [17]; 302 ± 64.8 nM in test [5] (Mus musculus, BaF3, 72 h); 530 ± 407 nM in test [6] (Mus musculus, BaF3, 72 h); 130 ± 18 nM in [18]; 248 ± 220 nM in [19]; 6790 nM in [20]. The IC50 is 210 ± 56 nM in test [7] (Mus musculus, BaF3, 72 h); 177 ± 88.6 nM in test [8] (Mus musculus, BaF3, 72 h); 845 ± 381 nM in test [9] (Mus musculus, BaF3, 72 h); 202 ± 70.2 nM in [10] (Mus musculus, BaF3, 72 h); 16.3 ± 6.6 nM in [21]; 336 ± 74.5 nM in [11] (Mus musculus, BaF3, 72 h).

`CN(C)C/C=C/C(=O)Nc1cc2c(Nc3ccc(F)c(Cl)c3)ncnc2cc1O[C@H]1CCOC1` [afatinib]: the concentration for half-maximal inhibition (IC50) in test [12] came out at 175 ± 136 nM; in [1] (Mus musculus, BaF3, 72 h) it was 8.75 ± 3.74 nM; in [2] (Mus musculus, BaF3, 72 h), 3.13 ± 0.21 nM; in test [13] it was 117 ± 105 nM; in [14], 163 ± 153 nM; in test [3] (Mus musculus, BaF3, 72 h), 6.89 ± 6.66 nM. The IC50 in test [16] was found to be 169 ± 84.6 nM; in test [17], 29.5 ± 19.5 nM; in [6] (Mus musculus, BaF3, 72 h), 14.1 ± 20.6 nM; in test [18], 1.79 ± 1.39 nM; in test [19] it was 162 ± 110 nM; in test [20], 1970 nM. Moreover, the IC50 in test [7] (Mus musculus, BaF3, 72 h) came to 5.17 ± 2.32 nM; in test [8] (Mus musculus, BaF3, 72 h), 2.75 ± 2.89 nM; in test [9] (Mus musculus, BaF3, 72 h), 83.2 ± 35.7 nM; in [22], 73.9 ± 60.9 nM; in test [10] (Mus musculus, BaF3, 72 h) it was 2.96 ± 1.29 nM; in [21], 1.7 ± 0.2 nM. The 50% inhibitory concentration (IC50) in test [11] (Mus musculus, BaF3, 72 h) stood at 22.1 ± 10.9 nM.

Regarding `COc1cc2ncnc(Nc3ccc(F)c(Cl)c3)c2cc1NC(=O)/C=C/CN1CCCCC1` [dacomitinib], in test [23] (phase II trial, patients with lung cancer harboring HER2 exon 20 mutations ref 34), the overall response rate was 12%.

As for `CCOc1cc2ncc(C#N)c(Nc3ccc(OCc4ccccn4)c(Cl)c3)c2cc1NC(=O)/C=C/CN(C)C` [neratinib], the half-inhibitory concentration (IC50) in test [12] turned out to be 48 ± 10 nM; in [1] (Mus musculus, BaF3, 72 h), 16 ± 11.7 nM; in [2] (Mus musculus, BaF3, 72 h) it was 2.66 ± 0.48 nM; in [13] it was 68.4 ± 65.5 nM; in [14], 51.9 ± 45.8 nM; in [3] (Mus musculus, BaF3, 72 h) it was 7.4 ± 4.64 nM. Also, the IC50 in test [16] came to 296 ± 331 nM; in test [17] it was 50.8 ± 14.1 nM; in [5] (Mus musculus, BaF3, 72 h), 13.5 ± 6.52 nM; in test [6] (Mus musculus, BaF3, 72 h), 49.1 ± 64 nM; in test [18], 5.41 ± 4.54 nM; in [19] it was 57.9 ± 39.6 nM. In addition, the IC50 is 1280 nM in test [20]; 4.96 ± 2.31 nM in [7] (Mus musculus, BaF3, 72 h); 5.64 ± 3.72 nM in test [8] (Mus musculus, BaF3, 72 h); 112 ± 69.7 nM in test [9] (Mus musculus, BaF3, 72 h); 5.78 ± 2.09 nM in test [10] (Mus musculus, BaF3, 72 h); 1.1 ± 0.1 nM in test [21]. In test [11] (Mus musculus, BaF3, 72 h), the IC50 worked out at 8.64 ± 3.81 nM. For the same molecule, the “patients with objective response” value in [23] (patients with HER2 mutant NSCLC, clinical trial ref 35) is on record as “one out of 26”.
